Key:
Experiment in all cases: 72 hr cell titer Glo proliferation assay, BRAFV600E mutant CRC cell lines
Type in all cases: cell-based
CL-34 = conditions: CL-34, single agent
Method: (§1) Single agent and combinatorial effects on proliferation of inhibitors of RAF (Compound of Formula (I)) and PIK3Ca (Compound X) kinases in seven BRAF-mutant CRC-derived cell lines. All cell lines express the BRAFV600E protein. Cells harboring known or putative activating mutations in the PI3Kα gene are marked with a (*) and cells with PTEN loss marked with a (#). Cell proliferation was measured in 72 hr cell titer Glo™ assays and all results supplied are the result of at least triplicate measurements. Shown are single agent IC50 values for the Compound of Formula (I) and Compound X. Synergy score (SS) measurements as well as the combination index (C150) at the 50% effect level are given for each combination) in Table 6. Interactions were deemed synergistic when SS values were ≥2.0 and CI values were ≤0.5. Interactions were deemed additive/synergistic when either SS values were ≥2.0 but CI values were >0.5 or SS values were <2.0 but CI values were ≤0.5. Interactions where termed additive when SS values were <2.0 and CI values were >0.5. Synergy calls are given in the “effect description” columns.

COLO 205 = conditions: COLO 205, single agent
Method: as §1

HT-29 = HT-29 (PI3Kα mutation), single agent
Method: as §1

LS411N = conditions: single agent
Method: as §1

OUMS-23 = OUMS-23 (PTEN loss), single agent
Method: as §1

RKO = RKO (PI3Kα mutation), single agent
Method: as §1

SNU-C5 = SNU-C5 (PI3Kα mutation), single agent
Method: as §1

SW1417 = conditions: SW1417, single agent
Method: as §1

Measured: IC50

Cc1nc(NC(=O)N2CCC[C@H]2C(N)=O)sc1-c1ccnc(C(C)(C)C(F)(F)F)c1 [Compound X, (S)-Pyrrolidine-1,2-dicarboxylic acid 2-amide 1-({4-methyl-5-[2-(2,2,2-trifluoro-1,1-dimethyl-ethyl)-pyridin-4-yl]-thiazol-2-yl}-amide)]
> 2700 nM: all assays above
